Measured values taken from US7301033B2, “PPAR-activating compound” (Kowa Co., Ltd., priority 2005, dated 2007).

What was measured:
Type in all cases: cell-based
human PPARα = target: T1, human PPARα (Homo sapiens, UniProt Q07869); experiment: Gal4-human PPARα chimera luciferase transfection assay in COS cells; settings: compound added at 1 μM, luciferase activity with WY14643 10 μM given as 10.0, 16 hours
T1 construct: 166th to 467th amino acids of human PPARα; expressed in transfected cells; host or cells: COS cells (African green monkey kidney)
T1 sequence (Q07869 166-467): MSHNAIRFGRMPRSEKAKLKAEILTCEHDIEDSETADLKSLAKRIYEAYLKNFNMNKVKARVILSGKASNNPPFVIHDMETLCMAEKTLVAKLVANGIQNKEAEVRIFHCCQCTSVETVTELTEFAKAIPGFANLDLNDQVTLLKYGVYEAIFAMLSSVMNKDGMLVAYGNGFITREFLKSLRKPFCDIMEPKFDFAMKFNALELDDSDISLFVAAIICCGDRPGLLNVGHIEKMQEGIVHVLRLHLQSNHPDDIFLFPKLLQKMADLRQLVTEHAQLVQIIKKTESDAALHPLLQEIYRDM
Experimental: (§1) The PPAR receptor-activating effect of the compound of the present invention represented by the formula (1) was measured by a method described below (Proc. Natl. Acad. Sci., 92, pp 7297-7301, 1995; Journal of Lipid Research, 40, pp 2099-2110, 1999; and Proc. Natl. Acad. Sci, 98, pp 5306-5311, 2001).
(§2) All the transfection assays were conducted using African green monkey kidney-derived cell line COS cells. The COS cells were cultured at 5% CO2 concentration using a DMEM medium containing 10% fetal bovine serum, glutamic acid, and an antibiotic as a culture solution.
(§3) Gal4-human PPARs chimeric constructs which were fused the DNA-binding region of yeast transcription factor Gal4 with the ligand-binding region of human PPARs were used as an expression vector. A chimera where 1st to 147th amino acids of the Gal4 transcription factor were fused with 166th to 467th amino acids of human PPARα, with 182nd to 505th amino acids of human PPARγ2, or with 137th to 441st amino acids of human PPARδ was used as the chimera for each isoform. A reporter vector used was firefly luciferase whose promoter region contains five Gal4 recognition sequences. The plasmids were transfected into the cells by a method using Lipofectamine. In addition, a β-galactosidase expression vector was used as an internal standard.
(§4) After the transfection into the cells, the medium was substituted with a DMEM medium (containing 0.2% serum) supplemented with the compound, in which the cells were then cultured for additional 16 hours. Thereafter, luciferase activity and β-galactosidase activity in the cell lysate were measured.
(§5) In the present experiment, dimethyl sulfoxide (DMSO) was used in the dissolution and dilution of the compound. When the cells were treated, the DMSO concentration in the DMEM medium (containing 0.2% serum) was adjusted to 0.1%.

human PPARγ2 = target: T2, human PPARγ2 (Homo sapiens, UniProt P37231); experiment: Gal4-human PPARγ2 chimera luciferase transfection assay in COS cells; settings: compound added at 1 μM, luciferase activity with rosiglitazone 1 μM given as 10.0, 16 hours
T2 construct: with 182nd to 505th amino acids of human PPARγ2; expressed in transfected cells; host or cells: COS cells (African green monkey kidney)
T2 sequence (P37231 182-505): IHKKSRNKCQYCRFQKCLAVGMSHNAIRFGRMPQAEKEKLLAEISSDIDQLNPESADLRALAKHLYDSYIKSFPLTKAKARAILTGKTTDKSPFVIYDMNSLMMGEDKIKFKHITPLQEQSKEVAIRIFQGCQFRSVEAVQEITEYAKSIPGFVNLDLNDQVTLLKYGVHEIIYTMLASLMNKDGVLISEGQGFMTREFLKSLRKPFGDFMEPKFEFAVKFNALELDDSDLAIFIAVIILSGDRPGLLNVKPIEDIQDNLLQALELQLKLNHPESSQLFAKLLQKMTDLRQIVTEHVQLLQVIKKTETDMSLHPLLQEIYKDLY
Experimental: as §1, §2, §3, §4, §5

human PPARδ = target: T3, human PPARδ (Homo sapiens, UniProt Q03181); experiment: Gal4-human PPARδ chimera luciferase transfection assay in COS cells; settings: compound added at 1 μM, luciferase activity with GW501516 1 μM given as 10.0, 16 hours
T3 construct: with 137th to 441st amino acids of human PPARδ; expressed in transfected cells; host or cells: COS cells (African green monkey kidney)
T3 sequence (Q03181 137-441): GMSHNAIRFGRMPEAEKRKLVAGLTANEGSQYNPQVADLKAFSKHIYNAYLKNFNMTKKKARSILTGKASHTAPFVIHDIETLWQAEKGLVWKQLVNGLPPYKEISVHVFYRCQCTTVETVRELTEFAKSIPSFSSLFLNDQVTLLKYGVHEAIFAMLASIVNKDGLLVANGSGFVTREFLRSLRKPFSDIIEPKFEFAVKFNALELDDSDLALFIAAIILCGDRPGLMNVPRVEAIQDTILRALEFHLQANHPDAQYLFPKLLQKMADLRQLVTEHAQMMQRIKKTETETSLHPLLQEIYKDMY
Experimental: as §1, §2, §3, §4, §5

Row | SMILES | hPPAR; Relative activity α (human PPARα) | hPPAR; Relative activity γ (human PPARγ2) | hPPAR; Relative activity δ (human PPARδ)
1 | CCCCCCN(CCCCSc1ccccc1C(=O)O)c1nc2ccccc2o1 [Example 93, 2-[4-[N-(Benzoxazol-2-yl)-N-n-hexyl]aminobutylthio]benzoic acid] | 12.3 | 4.1 | 0.4
2 | CCCCCCCCN(CCCCSc1ccccc1C(=O)O)c1nc2ccccc2o1 [Example 94, 2-[4-[N-(Benzoxazol-2-yl)-N-n-octyl]aminobutylthio]benzoic acid] | 12.0 | 3.5 | 1.4
3 | O=C(O)c1ccccc1SCCCCN(CCCc1ccccc1)c1nc2ccccc2o1 [Example 97, 2-[4-[N-(Benzoxazol-2-yl)-N-3-phenylpropyl]aminobutylthio]benzoic acid] | 11.6 | 4.6 | 0.2
4 | O=C(O)c1ccccc1SCCCCCN(Cc1ccc(Cl)cc1)c1nc2ccccc2o1 [Example 98, 2-[5-[N-(Benzoxazol-2-yl)-N-4-chlorobenzyl]aminopentylthio]benzoic acid] | 14.7 | 3.3 | 0.7
5 | CCN(CCCCCSc1ccccc1C(=O)O)c1nc2ccccc2o1 [Example 99, 2-[5-[N-(Benzoxazol-2-yl)-N-ethyl]aminopentylthio]benzoic acid] | 16.8 | 2.2 | 0.3
6 | CN(CCCCCSc1ccccc1C(=O)O)c1nc2ccccc2o1 [Example 100, 2-[5-[N-(Benzoxazol-2-yl)-N-methyl]aminopentylthio]benzoic acid] | 20.2 | 1.7 | 0.2
7 | CCCCCCCCN(CCCCCSc1ccccc1C(=O)O)c1nc2ccccc2o1 [Example 102, 2-[5-[N-(Benzoxazol-2-yl)-N-n-octyl]aminopentylthio]benzoic acid] | 20.3 | 2.1 | 0.9
8 | CCCN(CCCCCSc1ccccc1C(=O)O)c1nc2ccccc2o1 [Example 103, 2-[5-[N-(Benzoxazol-2-yl)-N-n-propyl]aminopentylthio]benzoic acid] | 12.4 | 2.0 | 0.2
9 | O=C(O)c1ccccc1SCCCCCN(CCCc1ccccc1)c1nc2ccccc2o1 [Example 104, 2-[5-[N-(BenzoxazoI-2-yl)-N-3-phenylpropyl]aminopentylthio]benzoic acid] | 18.7 | 2.7 | 0.8
10 | O=C(O)c1ccccc1SCCCCCN(CCCOc1ccccc1)c1nc2ccccc2o1 [Example 105, 2-[5-[N-(Benzoxazol-2-yl)-N-3-phenoxypropyl]aminopentylthio]benzoic acid] | 25.3 | 2.5 | 4.2
11 | O=C(O)c1ccccc1SCCCCCCN(Cc1ccc(Cl)cc1)c1nc2ccccc2o1 [Example 106, 2-[6-[N-(Benzoxazol-2-yl)-N-4-chlorobenzyl]aminohexylthio]benzoic acid] | 13.1 | 2.4 | 0.0
12 | CCN(CCCCSc1ccccc1C(=O)O)c1nc2ccccc2s1 [Example 108, 2-[4-[N-(Benzothiazol-2-yl)-N-ethyl]aminobutylthio]benzoic acid] | 16.2 | 1.4 | 0.2
13 | CN(CCCCSc1ccccc1C(=O)O)c1nc2ccccc2s1 [Example 109, 2-[4-[N-(Benzothiazol-2-yl)-N-methyl]aminobutylthio]benzoic acid] | 12.1 | 0.8 | 0.2
14 | CCCN(CCCCSc1ccccc1C(=O)O)c1nc2ccccc2s1 [Example 110, 2-[4-[N-(Benzothiazol-2-yl)-N-n-propyl]aminobutylthio]benzoic acid] | 11.0 | 2.0 | 0.2
15 | O=C(O)c1ccccc1SCCCCN(CCOc1ccccc1)c1nc2ccccc2s1 [Example 111, 2-[4-[N-(Benzothiazol-2-yl)-N-2-phenoxyethyl]aminobutylthio]benzoic acid] | 16.0 | 4.6 | 0.3
16 | CCCCCCCCN(CCCCCS(=O)(=O)c1ccccc1C(=O)O)c1nc2ccccc2o1 [Example 122, 2-[5-[N-(Benzoxazol-2-yl)-N-n-octyl]aminopentylsulfonyl]benzoic acid] | 12.2 | 2.3 | 0.2
